Each block holds one compound with its values, some of them ahead of it.
Experiments:
[1] = Franz cell sclera tissue permeation, PODD (pulsed LED light) vs passive controls; conditions: for levels of MTX recovered from Franz recipient cell: p<0.05 vs passive controls
Experimental: A traditional “up and down” vertical Franz cell skin perfusion apparatus as described above was adapted and used for this sclera tissue permeation model. […] Two wavelengths of light were selected of this facilitated permeation study. Samples of the Franz recipient solution were taken at 15, 30 and 60 minutes of photokinetic exposure and passive controls and analyzed by HPLC.
Franz cells (PermeGear, Inc, Bethlehem Pa.) having an 11.28 mm diameter permeation area, 1.0 cm^2 were used in the MTX experiment. A photokinetic ocular drug delivery (PODD)-modified Franz cell testing device was configured so that it accommodated the placement of LEDs within the donor chamber. The cells were placed within an aluminum block heater 35.5° C. on a magnetic stir bar setup (Custom manufactured by PermeGear, Inc, Bethlehem Pa.).
Discrete wavelength LEDs were purchased from Roithner Lasertechnick GmbH, Vienna, Austria as follows: 351 nm, #RTL350-30; 370 nm, #RLS-UV370. Peak emitting wavelengths are ±10 nm at the 50% radiance output. The LEDs were driven by a square wave pulse generator built by the investigators for this study. The adjustable square wave pulse generator provided pulsed electrical energy set at 24 cycles per second (CPS) with a 50% pulse duration (ON 50%, OFF 50% of the time). Driver current to the LEDs was limited to or slightly below the manufacturers specified drive current level to avoid exogenous heat generation. […] A donor cell contains the test drug (in this example, methotrexate (MTX)) in a solvent formulation. The recipient cell is filled with a balance salt solution. Samples for chemical analysis are taken from the side arm 27 of the Franz apparatus as discussed above. Control cells are set up the same, but without the LED. LEDs are driven by a square wave pulse generator (not shown) at a voltage slightly less than the manufacture's specified voltage.
Ovine eyes were procured by enucleation within one hour after euthanasia and placed in tissue culture medium with antibiotics and antimycotics and refrigerated at 4° C. Sclera tissue was dissected from the eyes and placed between the donor and recipient chambers of the Franz apparatus. Sclera was stored for a maximum of 30 hours in the tissue culture at 4° C. before the start of the experiment.
Methotrexate (MTX; (4-Amino-10-methylfolic acid hydrate); available from Sigma-Aldrich Corp., St. Louis, Mo.) was dissolved in a permeation enhancement carrier of water, 30% propylene glycol, 5% Ethyl Lactate, 0.1% Azone, and 0.75% hyaluronic acid as a gelling agent, with 0.1% neolone 850 as a preservative. An infinite donor sink model was used wherein 0.75 grams of the drug formulation (1.875 mg of each) was placed in the Franz donor cells. Hanks isotonic salt solution served as the Franz recipient cell fluid.
HPLC analysis was performed according to a method developed in our lab. Briefly, a Beckman Coulter system consisting of 125 pumps, 508 auto sampler and 168 diode array detector was used with an XTerra RP-C18, 150×40 mm, 3 μm column. The analytes were eluted with a gradient mobile phase from 25-30% Methanol in HPLC grade water with 0.1% Trifluoroacetic Acid (TFA) and flow rate of 0.7 ml/min. 32 Karat™ software (Beckman Coulter, Inc.) was used for acquisition of chromatograms.
The Franz recipient cell balanced salt solution was analyzed by the HPLC method for MTX concentration.

[2] = Histological examination of Franz cell mounted sclera after PODD exposure; parameters: species or system ovine; conditions: MTX formulation, 60 minute exposure, 350 nm LED light
Experimental: (§1) Sclera samples were taken and placed in formalin as follows: Normal control sclera with no exposure to drug or light, Franz cell 60 minute control drug only exposure and Franz cell 60 minute exposure to both drug and 350 nm LED light. Fixed slides were evaluated for structural integrity and gross appearance by a pathologist blinded as to the origin of the sample tissue.
as §1, with “Normal” for “Sclera samples were taken and placed in formalin as follows: Normal”, “light were taken and placed in formalin.” for “light.”, “masked” for “blinded”

[3] = rabbit
Source text: Exogenous human insulin can be differentiated from the endogenous rabbit insulin; the human insulin FITC (fluorescein isothiocyanate) fluorescent tag further allows for tracking of the drug within the tissues.
In this series, rabbits were fitted with transscleral photokinetic device, such as shown in FIG. 1 of this disclosure, for one hour. […] Images were taken of the posterior optic disc, the area where the retina, optic nerve and blood vessels come together on the posterior segment of the eye.

[4] = Photokinetic transdermal permeation study; assay type: in vitro ADME, human; conditions: similar photokinetic conditions
Source text: Scleral tissue is more permeable than human skin. The practical upper molecular weight limit with the PODD system is unknown and may be determined by the specific molecular configuration rather than molecular weight per se.

- levels of MTX recovered from Franz recipient cell ([1]; PODD 350 nm group, 24 CPS, 30 and 60 minute time points): significant
- levels of MTX recovered from Franz recipient cell ([1]; PODD 370 nm group, 24 CPS, 15, 30 and 60 minute time points): significant
- total MTX flux (compared with the therapeutic level) ([1]; PODD, up to 60 minutes, 1.0 cm^2 ovine sclera): < 400 µg
- flux rate, 370 nm group compared to the 350 nm group ([1]; all time points (15, 30, 60 minutes), 24 CPS): much higher flux rate
- MTX permeation through the scleral tissue, PODD cells ([1]; both wavelengths of light tested (350 nm and 370 nm), 24 CPS, vs passive controls): improvement
- histological examination, PODD exposure compared to passive control and normal sclera [2]: no differences between the samples
Compound: CN(Cc1cnc2nc(N)nc(N)c2n1)c1ccc(C(=O)N[C@@H](CCC(=O)O)C(=O)O)cc1 [MTX, 4-Amino-10-methylfolic acid hydrate]
- structural integrity of the sclera [2]: grossly intact and undamaged

Compound: FITC-labeled human insulin: human insulin modified at the N-terminus of the B-chain with an FITC conjugate/tag, 5733 Daltons, Invitrogen
- fluorescence in the optic disc, passive permeation [3]: did not show fluorescence
- fluorescence image of the optic disc after 1 hour of PODD ([3]; in vivo): reached the posterior segment of the rabbit's eye
- fluorescence, contralateral eye ([3]; in vivo): no fluorescence

- flux rates through intact human skin [4]: significant flux rates
Compound: hyaluronic acid
